Results from US4935424A, “4 or 5-(substituted piperazinylalkyl)-2-aminothiazoles as antipsychotic agents” (priority 1988, dated 1990).
Where two headings read alike, the source gives them in different places.

Key:
brain dopamine synthesis = test: Inhibition of brain dopamine synthesis in rats; assay type: in vivo; conditions: Rattus norvegicus, IP
Protocol: (§1) Thus, the compounds of Formula I were tested for their ability to inhibit locomotor activity in mice according to the assay described in Pharmacol. Biochem. Behav. 1978 (8) 97; for their ability to inhibit haloperidol binding in a receptor binding assay described in Mol. Pharmacol. 1976 (12), 800; for their ability to inhibit brain dopamine synthesis in rats according to the protocol described in Naumyn-Schmiedeberg's Arch. Pharmacol., 1976 (296) 5; and for their ability to inhibit dopamine neuron firing in rats according to the protocol described in Nature New Biology, 1973 (245) 123.

[1] = system: locomotor activity in mice; test: Inhibition of locomotor activity in mice; assay type: in vivo; conditions: Mus musculus, IP
Protocol: as §1

haloperidol binding = molecular target: T1, haloperidol binding (Bos taurus, UniProt P20288); test: Inhibition of haloperidol binding in a receptor binding assay; conditions: for inhibition at 10 µM: at 10,000 nM
T1 construct: from tissue
T1 sequence (P20288 whole entry): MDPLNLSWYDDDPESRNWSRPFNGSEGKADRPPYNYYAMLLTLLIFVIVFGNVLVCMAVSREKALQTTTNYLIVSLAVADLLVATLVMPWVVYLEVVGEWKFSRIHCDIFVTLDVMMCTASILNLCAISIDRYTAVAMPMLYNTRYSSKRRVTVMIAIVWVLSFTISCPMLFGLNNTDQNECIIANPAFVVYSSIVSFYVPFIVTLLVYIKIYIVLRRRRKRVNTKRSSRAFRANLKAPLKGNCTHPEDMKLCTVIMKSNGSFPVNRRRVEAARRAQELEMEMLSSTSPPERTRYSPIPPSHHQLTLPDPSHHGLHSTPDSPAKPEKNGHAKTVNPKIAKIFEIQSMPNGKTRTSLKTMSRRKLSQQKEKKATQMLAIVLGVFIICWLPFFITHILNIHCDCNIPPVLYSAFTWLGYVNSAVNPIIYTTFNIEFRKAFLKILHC
Protocol: as §1

dopamine neuron firing = test: Inhibition of dopamine neuron firing in rats; assay type: in vivo; conditions: IP
Protocol: as §1

[2] = read-out: Inhibition of Haloperidol Binding (IC50 nM)

Structure (SMILES)	inhibition at 10 µM (haloperidol binding)	IC50 (haloperidol binding; [2])	inhibition in vivo at 10 mg/kg (brain dopamine synthesis)	ED50 [1]	Inhibition of Dopamine Neuron Firing in Rats (dopamine neuron firing; 10 mg/kg)	Inhibition of Dopamine Neuron Firing in Rats (dopamine neuron firing; 2.5 mg/kg)	inhibition in vivo at 1 mg/kg (brain dopamine synthesis)	IC50 (haloperidol binding)
Nc1ncc(CCN2CC=C(c3ccccc3)CC2)s1 [Example 2b, 5-[2-(3,6-Dihydro-4-phenyl-1(2H)-pyridinyl)ethyl]-2-thiazolamine]			25%	0.47 mg/kg				
Nc1nc(CCCN2CCN(c3ccccc3)CC2)cs1 [Example 1c, 4-[3-(4-Phenyl-1-piperazinyl)propyl]-2-thiazolamine]	40%			2.4 mg/kg				
Cc1nc(N)sc1CCN1CCN(c2ccccc2)CC1 [Example 1b, 4-Methyl-5-[2-(4-phenyl-1-piperazinyl)ethyl]-2-thiazolamine]	100%			1.5 mg/kg	80%			
Cc1nc(N)sc1CCN1CC=C(c2ccccc2)CC1 [Example 1d, 5-[2-(3,6-dihydro-4-phenyl-1(2H)-pyridinyl)ethyl]-4-methyl-2-thiazolamine]		400 nM	84%	0.88 mg/kg		70%		
Cc1nc(N)sc1CCN1CCN(c2ccccn2)CC1 [Example 1h, 4-Methyl-5-[2-[4-(2-pyridinyl)-1-piperazinyl]ethyl]-2-thiazolamine]		75 nM		1.4 mg/kg		100%	87%	
Cc1nc(N)sc1CCCN1CCN(c2ccccn2)CC1 [Example 1j, 4-Methyl-5-[3-[4-(2-pyridinyl)-1-piperazinyl]propyl]-2-thiazolamine]		249 nM	100%	4.6 mg/kg		98%		
Nc1ncc(CCN2CCN(c3ccccn3)CC2)s1 [Example 2, 5-[2-[4-(2-pyridinyl)-1-piperazinyl]ethyl]-2-thiazolamine]			92%	5.9 mg/kg				
Cl.Cl.Nc1nc(CCCN2CC=C(c3ccccc3)CC2)cs1 [Example 1e, 4-[3-(3,6-Dihydro-4-phenyl-1(2H)-pyridinyl)propyl]-2-thiazolamine, dihydrochloride]			44%	1.7 mg/kg		78%		346 nM
Cc1nc(N)sc1CCN1CCN(c2ncccn2)CC1 [Example 1f, 4-Methyl-5-[2-[4-(2-pyrimidinyl)-1-piperazinyl]ethyl]-2-thiazolamine]		118 nM		1.4 mg/kg				
Nc1ncc(CCN2CCN(c3ccccc3)CC2)s1 [Example 2a, 5-[2-(4-Phenyl-1-piperazinyl)ethyl]-2-thiazolamine]				2.6 mg/kg				

Continued, in another order:

inhibition at 10 µM (haloperidol binding)	IC50 (haloperidol binding; [2])	Structure (SMILES)	inhibition in vivo at 10 mg/kg (brain dopamine synthesis)	ED50 [1]	Inhibition of Dopamine Neuron Firing in Rats (dopamine neuron firing; 10 mg/kg)	Inhibition of Dopamine Neuron Firing in Rats (dopamine neuron firing; 2.5 mg/kg)	inhibition in vivo at 1 mg/kg (brain dopamine synthesis)	IC50 (haloperidol binding)
100%		Nc1nc(CCCN2CCN(c3ccccn3)CC2)cs1 [Example 1i, 4-[3-[4-(2-Pyridinyl)-1-piperazinyl]-propyl]-2-thiazolamine]	43%	7.6 mg/kg				
	488 nM	Nc1nc(CCCCN2CCN(c3ccccn3)CC2)cs1 [Example 1k, 4-[4-[4-(2-Pyridinyl)-1-piperazinyl]-butyl]-2-thiazolamine]	63%	5.5 mg/kg				
	1600 nM	Nc1nc(CCCN2CCN(c3ncccn3)CC2)cs1 [Example 1g, 4-[3-[4-(2-Pyrimidinyl)-1-piperazinyl]-propyl]-2-thiazolamine]		> 30 mg/kg				
	1060 nM	Nc1nc(CCCCN2CCN(c3ncccn3)CC2)cs1 [Example 1a, 4-[4-[4-(2-Pyrimidinyl)-1-piperazinyl]butyl]-2-thiazolamine]		> 30 mg/kg				
	370 nM	Cc1nc(N)sc1CCCN1CCN(c2ncccn2)CC1 [Example 1, 4-Methyl-5-[3-[4-(2-pyrimidinyl)-1-piperazinyl]-propyl]-2-thiazolamine]		6.3 mg/kg		90%	82%	
